Tests used:
KDM2A = biological target: T1, KDM2A (Homo sapiens, UniProt Q9Y2K7); assay: biochemical; parameters: RapidFire MS histone peptide demethylation assay; conditions: for KDM2A RapidFire pIC50: inhibitor; for IC50: read-out: KDM2A RapidFire pIC50 (converted)
T1 construct: isolated enzyme
T1 sequence (Q9Y2K7 1-517 limits assumed): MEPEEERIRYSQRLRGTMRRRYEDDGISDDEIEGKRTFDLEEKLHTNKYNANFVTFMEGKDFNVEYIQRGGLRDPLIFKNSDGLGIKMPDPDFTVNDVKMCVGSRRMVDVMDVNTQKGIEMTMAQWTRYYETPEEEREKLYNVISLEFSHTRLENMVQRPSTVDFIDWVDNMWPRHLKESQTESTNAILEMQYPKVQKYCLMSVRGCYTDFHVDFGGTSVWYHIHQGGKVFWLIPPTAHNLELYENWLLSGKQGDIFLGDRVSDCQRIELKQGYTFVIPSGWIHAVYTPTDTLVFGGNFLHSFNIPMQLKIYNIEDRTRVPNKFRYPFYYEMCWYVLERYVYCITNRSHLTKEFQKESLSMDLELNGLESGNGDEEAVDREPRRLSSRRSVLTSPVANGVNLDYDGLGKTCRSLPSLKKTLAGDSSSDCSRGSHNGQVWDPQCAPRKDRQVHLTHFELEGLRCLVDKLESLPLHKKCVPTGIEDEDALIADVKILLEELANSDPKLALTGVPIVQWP
Experimental: [formula] Scheme 1 A) General synthetic strategy for racemic synthesis of KDM2A inhibitors. Reagents and conditions: i) Zn powder (10 equiv), NH4Cl (15 equiv), 5:1 acetone/H2O or H2, Pd/C (10 % w/w), EtOAc; ii) ArCHO (1.3 equiv), MgSO4 (5 equiv), PhMe or ArCHO (1.3 equiv), pyrrolidine (0.1 equiv), 3 Å sieves, CH2Cl2; iii) KO^tBu (1.1 equiv), PhMe, 0 °C; iv) R^3COCl (2–5 equiv), pyridine (2–5 equiv), CH2Cl2; v) metal‐catalysed cross‐coupling. B) Key structure–activity relationships. IC50 values were determined by RapidFire MS and confirmed by AlphaScreen. All compounds are racemic. C) Catalytic enantioselective synthesis. Reagents and conditions: i) CsOH⋅H2O (2.0 equiv), catalyst 14/16 (10 mol %), PhMe, −30 °C. Catalyst 14: 89 %, d.r. 10:1, e.r. 88:12; catalyst 16: 84 %, d.r. 7:1, e.r. 17:83; ii) CH3COCl (2.0 equiv), pyridine (2.0 equiv), CH2Cl2; iii) H2, Pd/C (10 % w/w), 88 % (2 steps); iv) K2CO3 (5 equiv), Br(CH2)7Br (4 equiv), acetone, reflux, 38 %; v) K2CO3 (5 equiv) pyrrolidine (4 equiv), CH3CN, 65 %; vi) PhN(SO2CF3)2 (1.1 equiv), DIPEA (2.0 equiv), CH2Cl2, 0 °C, 85 %; vii) 7‐pyrrolidine‐hept‐1‐yne (1.5 equiv), PdCl2(PPh3)2 (5 mol %), CuI (5 mol %), HN(^iPr)2, 75 °C, 79 %; viii) H2, Pd/C (10 % w/w), MeOH, 74 %. DIPEA=(^iPr)2NEt. A base‐mediated 5‐endo‐trig cyclization of a C‐2‐substituted aromatic imine afforded the racemic indoline core with two adjacent stereocenters. Subsequent acylation of the indoline ring system conferred stability towards oxidation and provided a handle for modulating polarity. Finally, metal‐catalysed cross‐coupling of the aryl bromide provided access to a variety of linkers between the indoline core and pyrrolidine capping group. In total, 45 racemic compounds were synthesized, and IC50 values for inhibition of KDM2A were determined using two orthogonal enzyme activity assays: AlphaScreen25 and RapidFire MS26 (see Section S3.1 in the Supporting Information for complete inhibition data). Key structure–activity relationships are summarized below (Scheme 1 B, compounds 2–12).

JMJD2A (KDM4A) = biological target: T2, JMJD2A (KDM4A) (Homo sapiens, UniProt O75164); assay: biochemical; parameters: AlphaScreen histone demethylase activity assay; conditions: read-out: KDM4A % Inhib. (18.75 uM)
T2 sequence (O75164 1-1064): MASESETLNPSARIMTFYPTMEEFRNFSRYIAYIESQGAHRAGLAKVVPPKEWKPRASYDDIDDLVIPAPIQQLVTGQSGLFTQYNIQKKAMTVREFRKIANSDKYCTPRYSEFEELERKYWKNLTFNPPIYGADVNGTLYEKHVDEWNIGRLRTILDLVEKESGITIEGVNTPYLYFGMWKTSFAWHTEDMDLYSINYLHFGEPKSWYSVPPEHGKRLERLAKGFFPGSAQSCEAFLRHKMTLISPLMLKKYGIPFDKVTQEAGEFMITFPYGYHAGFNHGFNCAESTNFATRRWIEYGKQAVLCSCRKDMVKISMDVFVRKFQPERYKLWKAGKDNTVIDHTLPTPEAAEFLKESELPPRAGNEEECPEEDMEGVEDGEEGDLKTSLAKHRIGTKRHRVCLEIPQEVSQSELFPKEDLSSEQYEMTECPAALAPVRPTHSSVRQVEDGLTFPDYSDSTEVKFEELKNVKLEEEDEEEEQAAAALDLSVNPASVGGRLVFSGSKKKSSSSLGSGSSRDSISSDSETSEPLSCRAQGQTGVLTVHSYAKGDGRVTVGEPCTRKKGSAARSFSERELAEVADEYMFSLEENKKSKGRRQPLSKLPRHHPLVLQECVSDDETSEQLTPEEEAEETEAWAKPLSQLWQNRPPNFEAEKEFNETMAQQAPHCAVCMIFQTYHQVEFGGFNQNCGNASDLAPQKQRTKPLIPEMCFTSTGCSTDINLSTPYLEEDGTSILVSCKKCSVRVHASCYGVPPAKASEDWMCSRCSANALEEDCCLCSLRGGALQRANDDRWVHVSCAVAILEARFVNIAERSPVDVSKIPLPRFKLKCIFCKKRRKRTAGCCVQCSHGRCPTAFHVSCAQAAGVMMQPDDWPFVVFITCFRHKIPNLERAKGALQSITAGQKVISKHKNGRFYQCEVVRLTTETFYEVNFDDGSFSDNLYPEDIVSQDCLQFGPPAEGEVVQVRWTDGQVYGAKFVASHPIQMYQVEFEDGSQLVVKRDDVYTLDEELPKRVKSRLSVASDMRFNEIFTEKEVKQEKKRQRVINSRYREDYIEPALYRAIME

Compound	IC50 (KDM2A) [µM]	other results
CC(=O)N1c2ccccc2[C@@](C#N)(c2ccccc2)[C@@H]1c1cncc(OCCCCCCCN2CCCC2)c1 [(S,S)-3]		KDM2A RapidFire pIC50 (KDM2A): 6.401
CC(=O)N1c2ccccc2[C@](C#N)(c2ccccc2)[C@H]1c1cccc(OCCCCCCN2CCCC2)c1 (racemic) [compound 58, (2RS,3RS)-1-Acetyl-3-phenyl-2-(3-((6-(pyrrolidin-1-yl)hexyl)oxy)phenyl)indoline-3-carbonitrile]	1.03	
CC(=O)N1c2ccccc2[C@](C#N)(c2ccccc2)[C@H]1c1cccc(OCCCCCN2CCCC2)c1 (racemic) [compound 57, (2RS,3RS)-1-Acetyl-3-phenyl-2-(3-((5-(pyrrolidin-1-yl)pentyl)oxy)phenyl)indoline-3-carbonitrile]	1.25	
N#C[C@]1(c2ccccc2)c2ccccc2N(C(=O)c2ccccc2)[C@@H]1c1cccc(OCCCCCCCN2CCCC2)c1 (racemic) [compound 63, (2RS,3RS)-1-Benzoyl-3-phenyl-2-(3-((7-(pyrrolidin-1-yl)heptyl)oxy)phenyl)indoline-3-carbonitrile]	2.02	
CC(=O)N1c2ccccc2[C@](C#N)(c2ccccc2)[C@H]1c1cccc(/C=C/CCCCCN2CCCC2)c1 (racemic) [compound 9, 9]		inhibition at 18.75 µM (JMJD2A (KDM4A)): 3.4%
CC(=O)N1c2ccccc2C(C#N)(c2ccccc2)C1c1ccc(C#CCCCCCN2CCCC2)o1 (centres unmarked) [compound 133, 133]		inhibition at 18.75 µM (JMJD2A (KDM4A)): 19.8%
CC(=O)N1c2ccccc2[C@](C#N)(c2ccccc2)[C@H]1c1cccc(OCCCCCCCN2CCCC2)c1 (racemic) [compound 59, (2RS,3RS)-1-Acetyl-3-phenyl-2-(3-((7-(pyrrolidin-1-yl)heptyl)oxy)phenyl)indoline-3-carbonitrile]	0.893	
CC(=O)N1c2ccccc2[C@](C#N)(c2ccccc2)[C@H]1c1cccc(OCCCCN2CCCC2)c1 (racemic) [compound 56, (2RS,3RS)-1-Acetyl-3-phenyl-2-(3-(4-(pyrrolidin-1-yl)butoxy)phenyl)indoline-3-carbonitrile]	2.02	
CC(=O)N1c2ccccc2[C@](C#N)(c2ccccc2)[C@H]1c1cccc(OCCCCCCCCN2CCCC2)c1 (racemic) [compound 60, (2RS,3RS)-1-Acetyl-3-phenyl-2-(3-((8-(pyrrolidin-1-yl)octyl)oxy)phenyl)indoline-3-carbonitrile]	1.38	
N#CCC(=O)N1c2ccccc2[C@](C#N)(c2ccccc2)[C@H]1c1cncc(CCCCCCCN2CCCC2)c1 (relative stereo) [compound 139, 139]		KDM2A RapidFire pIC50 (KDM2A): 6.368
CC(=O)N1c2ccccc2[C@](C#N)(c2ccccc2)[C@H]1c1cccc(OCCCCCCCCCN2CCCC2)c1 (racemic) [compound 62, (2RS,3RS)-1-Acetyl-3-phenyl-2-(3-((9-(pyrrolidin-1-yl)nonyl)oxy)phenyl)indoline-3-carbonitrile]	1.51	
CC(=O)N1c2ccccc2C(C#N)(c2ccccc2)C1c1cc(C#CCCCCCN2CCCC2)co1 (centres unmarked) [compound 134, 134]		inhibition at 18.75 µM (JMJD2A (KDM4A)): 19.4%
N#C[C@]1(c2ccccc2)c2ccccc2N[C@@H]1c1cncc(CCCCCCCN2CCCC2)c1 (relative stereo) [compound 142, 142]		KDM2A RapidFire pIC50 (KDM2A): 6.708
N#C[C@]1(c2ccccc2)c2ccccc2N[C@@H]1c1cncc(C#CCCCCCN2CCCC2)c1 (relative stereo) [compound 137, 137]		KDM2A RapidFire pIC50 (KDM2A): 5.884

Continued, in another order:

IC50 (KDM2A) [µM]	Compound	other results
1.32	N#C[C@]1(c2ccccc2)c2ccccc2N(C(=O)c2ccc(C(F)(F)F)cc2)[C@@H]1c1cccc(OCCCCCCCN2CCCC2)c1 (racemic) [compound 66, (2RS,3RS)-3-Phenyl-2-(3-((7-(pyrrolidin-1-yl)heptyl)oxy)phenyl)-1-(4-(trifluoromethyl)benzoyl)indoline-3-carbonitrile]	
0.838	CC(=O)N1c2ccccc2[C@](C#N)(c2ccccc2)[C@H]1c1cncc(/C=C\CCCCCN2CCCC2)c1 (racemic) [compound 152, (2RS,3RS)-1-Acetyl-3-phenyl-2-(5-((Z)-7-(pyrrolidin-1-yl)hept-1-en-1-yl)pyridin-3-yl)indoline-3-carbonitrile]	
3.26	CC(=O)N1c2ccccc2[C@](C#N)(c2ccccc2)[C@H]1c1cccc(OCCCCCCCN2CCOCC2)c1 (racemic) [compound 70, (2RS,3RS)-1-Acetyl-2-(3-((7-morpholinoheptyl)oxy)phenyl)-3-phenylindoline-3-carbonitrile]	
1.35	CC(C)CC(=O)N1c2ccccc2[C@](C#N)(c2ccccc2)[C@H]1c1cccc(OCCCCCCCN2CCCC2)c1 (racemic) [compound 65, (2RS,3RS)-1-(3-Methylbutanoyl)-3-phenyl-2-(3-((7-(pyrrolidin-1-yl)heptyl)oxy)phenyl)indoline-3-carbonitrile]	
1.07	CC(=O)N1c2ccccc2[C@](C#N)(c2ccccc2)[C@H]1c1cccc(OCCCCCCCN2CCCCC2)c1 (racemic) [compound 69, (2RS,3RS)-1-Acetyl-3-phenyl-2-(3-((7-(piperidin-1-yl)heptyl)oxy)phenyl)indoline-3-carbonitrile]	
0.883	N#C[C@]1(c2ccccc2)c2ccccc2N(C(=O)c2ccco2)[C@@H]1c1cccc(OCCCCCCCN2CCCC2)c1 (racemic) [compound 64, (2RS,3RS)-1-(Furan-2-carbonyl)-3-phenyl-2-(3-((7-(pyrrolidin-1-yl)heptyl)oxy)phenyl)indoline-3-carbonitrile]	
